The values below come from ChEMBL document CHEMBL4699597, “Tabernaesines A-I, Cytotoxic Aspidosperma-Aspidosperma-Type Bisindole Alkaloids from Tabernaemontana pachysiphon” (J Nat Prod, 2020).

Common to all, as to format: functional, cell-based
One experiment deals with MDA-MB-231. As to the kind of experiment: Cytotoxicity against human MDA-MB-231 cells assessed as reduction in cell viability after 72 hrs by MTT assay. Particulars: MDA-MB-231, 72 h. Background: Tetrazolium dyes change colour on reduction, which living cells bring about.
The subject of the next experiment is A549. As to the kind of experiment: Cytotoxicity against human A549 cells assessed as reduction in cell viability after 72 hrs by MTT assay. Particulars: A549, 72 h.
Another experiment has as its system T47D. Briefly: Cytotoxicity against human T47D cells assessed as reduction in cell viability after 72 hrs by MTT assay.
The next experiment deals with SK-MEL-28. As to the kind of experiment: Cytotoxicity against human SK-MEL-28 cells assessed as reduction in cell viability after 72 hrs by MTT assay. Particulars: SK-MEL-28, 72 h.
For the next experiment, the system named is SW480. As to the kind of experiment: Cytotoxicity against human SW480 cells assessed as reduction in cell viability after 72 hrs by MTT assay. Particulars: SW480, 72 h.
A further experiment deals with HepG2. Briefly: Cytotoxicity against human HepG2 cells assessed as reduction in cell viability after 72 hrs by MTT assay. Particulars: HepG2, 72 h.

With `CCN(CC)Cc1ccc2c(c1O)N1C[C@]3(C[C@@H]4C[C@]56CCO[C@H]5CCN5CC[C@@]2([C@@H]56)[C@]41O)CN1CC[C@]24C(=C(C(=O)OC)C[C@@]5(CCO[C@@H]35)[C@H]12)Nc1ccccc14`, the IC50 – broadly, the midpoint of a concentration-inhibition curve – with MDA-MB-231 is above 10 µM; with A549, above 10 µM; in the experiment on T47D, above 10 µM; in the experiment on SK-MEL-28 it was 8.3 µM; with SW480, above 10 µM; with HepG2, 7.4 µM.
Turning to `COC(=O)C1=C2Nc3ccccc3[C@@]23CCN2C[C@]4(C[C@@H]5C[C@]67CC(=O)O[C@H]6CCN6CC[C@@]8(c9cccc(OC)c9N(C4)[C@@]58O)[C@@H]67)[C@@H]4OCC[C@]4(C1)[C@H]23`, the IC50 in the experiment on MDA-MB-231, with A549, in the experiment on T47D, with SK-MEL-28, with SW480 and with HepG2 was above 10 µM in each case.
Turning to `CC[C@@]12C[C@H]3C[C@@]4(CN5c6ccccc6[C@@]6(CCN(C[C@H]7O[C@H]71)[C@@H]26)[C@H]35)C(=O)N1CC[C@]23C(=C(C(=O)OC)C[C@@]5(CCO[C@@H]45)[C@H]12)Nc1ccccc13`, the IC50 in the experiment on MDA-MB-231 is above 10 µM; in the experiment with A549 it was above 10 µM; in the experiment with T47D, 9.8 µM; in the experiment on SK-MEL-28, 6.8 µM; in the experiment with SW480, 9.8 µM; in the experiment with HepG2, 6.3 µM.
For the molecule `CCN(CC)Cc1ccc2c(c1O)N1C[C@]3(C[C@@H]4C[C@]56CC(=O)O[C@H]5CCN5CC[C@@]2([C@@H]56)[C@]41O)CN1CC[C@]24C(=C(C(=O)OC)C[C@@]5(CCO[C@@H]35)[C@H]12)Nc1ccccc14`, the IC50 in the experiment with MDA-MB-231, with A549, in the experiment with T47D, with SK-MEL-28, in the experiment on SW480 and with HepG2 was above 10 µM each time.
Consider `CC[C@@]12C[C@H]3C[C@]4(CN5CC[C@]67C(=C(C(=O)OC)C[C@@]8(CCO[C@@H]48)[C@H]56)Nc4ccccc47)CN4c5ccccc5[C@@]5(CCN(C[C@H]6O[C@H]61)[C@@H]25)[C@]34O`, for which the IC50 was above 10 µM in the experiment with MDA-MB-231; above 10 µM in the experiment on A549; 5.5 µM with T47D; 6.4 µM in the experiment on SK-MEL-28; 7.2 µM with SW480; 9.6 µM in the experiment with HepG2.
`CC[C@@]12C[C@H]3C[C@@]4(CN5CC[C@]67C(=C(C(=O)OC)C[C@@]8(CCO[C@@H]48)[C@H]56)Nc4ccccc47)CN4c5ccccc5[C@@]5(CCN(C[C@H]6O[C@H]61)[C@@H]25)[C@H]34`: the IC50 in the experiment on MDA-MB-231, in the experiment with A549, with T47D, in the experiment on SK-MEL-28, with SW480 and in the experiment on HepG2 was above 10 µM each time.
With `COC(=O)C1=C2Nc3ccccc3[C@@]23CCN2CC(CC4=C[C@@]5(CCO)CC(C(=O)OC)=C6Nc7ccccc7[C@@]67CCN(C4)[C@@H]57)=C[C@@](CCO)(C1)[C@H]23`, the IC50 in the experiment with MDA-MB-231, in the experiment with A549, in the experiment on T47D, in the experiment on SK-MEL-28, in the experiment on SW480 and with HepG2 was above 10 µM each time.
Regarding `COC(=O)C1=C2Nc3ccccc3[C@@]23CCN2C[C@]4(C[C@@H]5C[C@]67CC(=O)O[C@H]6CCN6CC[C@@]8(c9cccc(O)c9N(C4)[C@@]58O)[C@@H]67)[C@@H]4OCC[C@]4(C1)[C@H]23`, the IC50 in the experiment with MDA-MB-231, in the experiment on A549, in the experiment on T47D, in the experiment with SK-MEL-28, in the experiment with SW480 and in the experiment with HepG2 was above 10 µM throughout.
Consider `CC[C@@]12C[C@H]3C[C@]4(CN5CC[C@]67C(=C(C(=O)OC)C[C@@]8(CCO[C@@H]48)[C@H]56)Nc4ccccc47)CN4c5ccccc5[C@@]5(CCN(C[C@H](O)[C@H]1O)[C@@H]25)[C@H]34`, for which the IC50 in the experiment with MDA-MB-231 is above 10 µM; with A549 it was above 10 µM; in the experiment with T47D it was 8.7 µM; in the experiment on SK-MEL-28, 6.7 µM; in the experiment with SW480, 7.8 µM; in the experiment with HepG2, 2.5 µM.
Turning to `CC[C@@]12C[C@H]3C[C@@]4(CN5CC[C@]67C(=C(C(=O)OC)C[C@@]8(CCO[C@@H]48)[C@H]56)Nc4ccccc47)CN4c5ccccc5[C@@]5(CCN(C[C@H](O)[C@H]1O)[C@@H]25)[C@]34O`, the IC50 in the experiment on MDA-MB-231, in the experiment on A549, with T47D, in the experiment on SK-MEL-28, in the experiment with SW480 and in the experiment on HepG2 was above 10 µM each time.
In the case of `COC(=O)C1=C2Nc3ccccc3[C@@]23CCN2C[C@]4(C[C@@H]5C[C@]67CCO[C@H]6CCN6CC[C@@]8(c9cccc(OC)c9N(C4)[C@@]58O)[C@@H]67)[C@@H]4OCC[C@]4(C1)[C@H]23`, the IC50 with MDA-MB-231, in the experiment with A549, in the experiment on T47D, in the experiment on SK-MEL-28, in the experiment on SW480 and with HepG2 was above 10 µM in each case.
Take `CC[C@@]12C[C@]3(CC4=C5N(C3)c3ccccc3[C@@]53CCN5C[C@H]6O[C@H]6[C@@](CC)(C4)[C@H]53)C3=Nc4ccccc4[C@@]34CCN(C[C@H]3O[C@H]31)[C@@H]24`: the IC50 in the experiment on MDA-MB-231, with A549, in the experiment with T47D, in the experiment on SK-MEL-28, in the experiment on SW480 and in the experiment on HepG2 was above 10 µM in each case.
For the molecule `CC[C@@]12C[C@H]3C[C@]4(CN5CC[C@]67C(=C(C(=O)OC)C[C@@]8(CCO[C@@H]48)[C@H]56)Nc4ccccc47)CN4c5ccccc5[C@@]5(CCN(C[C@H]6O[C@H]61)[C@@H]25)[C@H]34`, the IC50 in the experiment on MDA-MB-231, in the experiment on A549, with T47D, with SK-MEL-28, in the experiment on SW480 and with HepG2 was above 10 µM each time.
On to `CC[C@@]12C[C@H]3C[C@@]4(CN5CC[C@]67C(=C(C(=O)OC)C[C@@]8(CCO[C@@H]48)[C@H]56)Nc4ccccc47)CN4c5ccccc5[C@@]5(CCN(C[C@H](O)[C@H]1O)[C@@H]25)[C@H]34`, for which the IC50 in the experiment on MDA-MB-231, with A549, in the experiment with T47D, in the experiment with SK-MEL-28, in the experiment with SW480 and with HepG2 was above 10 µM throughout.
As to `CC[C@@]12C[C@H]3C[C@]4(CN5CC[C@]67C(=C(C(=O)OC)C[C@@]8(CCO[C@@H]48)[C@H]56)Nc4ccccc47)CN4c5ccccc5[C@@]5(CCN(C[C@H](O)[C@H]1O)[C@@H]25)[C@]34O`, the IC50 in the experiment on MDA-MB-231 is above 10 µM; with A549 it was above 10 µM; in the experiment on T47D, 9.5 µM; in the experiment on SK-MEL-28, above 10 µM; with SW480, above 10 µM; in the experiment with HepG2, above 10 µM.
In the case of `CC[C@@]12C[C@H]3C[C@@]4(CN5CC[C@]67C(=C(C(=O)OC)C[C@@]8(CCO[C@@H]48)[C@H]56)Nc4ccccc47)CN4c5ccccc5[C@@]5(CCN(C[C@H]6O[C@H]61)[C@@H]25)[C@]34O`, the IC50 was 8.3 µM in the experiment on MDA-MB-231; above 10 µM with A549; above 10 µM in the experiment on T47D; above 10 µM in the experiment with SK-MEL-28; above 10 µM with SW480; above 10 µM with HepG2.
`CC[C@@]12CC3=C4N(C[C@]5(C3)CN3CC[C@]67C(=C(C(=O)OC)C[C@@]8(CCO[C@@H]58)[C@H]36)Nc3ccccc37)c3ccccc3[C@@]43CCN(C[C@H]4O[C@H]41)[C@@H]23`: the IC50 in the experiment on MDA-MB-231, with A549, in the experiment with T47D, in the experiment with SK-MEL-28, with SW480 and in the experiment with HepG2 was above 10 µM throughout.
For the molecule `COC(=O)C1=C2Nc3ccccc3[C@@]23CCN2C[C@]4(C[C@@H]5C[C@]67CC(=O)O[C@H]6CCN6CC[C@@]8(c9cccc(OC)c9N(C4)[C@@H]58)[C@@H]67)[C@@H]4OCC[C@]4(C1)[C@H]23` [DEOXYVOBSTUSINE LACTONE], the IC50 in the experiment on MDA-MB-231, in the experiment with A549, in the experiment with T47D, with SK-MEL-28, with SW480 and in the experiment with HepG2 was above 10 µM throughout.
Regarding `CC[C@]1(O)C[C@@H]2CN(CCc3c([nH]c4ccccc34)[C@@](C(=O)OC)(c3cc4c(cc3OC)N(C)[C@H]3[C@@](O)(C(=O)OC)[C@H](OC(C)=O)[C@]5(CC)C=CCN6CC[C@]43[C@@H]65)C2)C1` [VINBLASTINE], the IC50 in the experiment on MDA-MB-231 is 0.0425 µM; in the experiment on A549 it was 0.021 µM; in the experiment with T47D it was 0.0103 µM; in the experiment on SK-MEL-28 it was 0.0733 µM; in the experiment with SW480, 0.0325 µM; in the experiment with HepG2 it was 0.0093 µM.
